This note sets out measurements from patent US11142515B2, “Pyrazolyl-ureas as kinase inhibitors” (RESPIVERT LIMITED, priority 2014, dated 2021).

Test [1] has as its target T1, p38 MAPKα isoform (MAPK14) (Homo sapiens, UniProt Q16539).
T1 construct: purchased Life Technologies
As to the kind of experiment: p38 MAPKα enzyme inhibition (Z-LYTE FRET). Format: biochemical. As to conditions: Table 2B, unit inferred; read-out: p38 MAPKα (Enzyme Profile). The essentials: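 Recombinant human MAPK14 (40 ng/mL stock) was preincubated 2 h at RT with compound (stock dilutions 0.0012-40 μg/mL). The Z-LYTE FRET read-out used a MAPKAP-K2-derived peptide, and protease development for 1 h cleaved only non-phosphorylated peptide. Phosphorylation was calculated from the coumarin/fluorescein emission ratio.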

The target of the next test is T2, p38MAPKγ (MAPK12) (Homo sapiens, UniProt P53778).
T2 construct: purchased Life Technologies
T2 sequence (P53778 1-367): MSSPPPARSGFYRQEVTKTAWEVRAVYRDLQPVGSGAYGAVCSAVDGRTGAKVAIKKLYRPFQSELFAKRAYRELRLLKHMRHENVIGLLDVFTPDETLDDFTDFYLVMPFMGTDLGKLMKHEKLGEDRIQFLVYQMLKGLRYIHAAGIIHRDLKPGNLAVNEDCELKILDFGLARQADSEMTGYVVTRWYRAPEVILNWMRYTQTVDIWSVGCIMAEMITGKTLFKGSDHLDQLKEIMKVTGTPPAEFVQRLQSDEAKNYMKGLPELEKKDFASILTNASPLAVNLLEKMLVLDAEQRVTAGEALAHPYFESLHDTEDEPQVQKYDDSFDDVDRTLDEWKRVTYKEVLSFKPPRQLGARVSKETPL
Description: p38 MAPKγ enzyme inhibition (Z-LYTE FRET). Format: biochemical. As to conditions: Table 2B, unit inferred; read-out: p38 MAPKγ (Enzyme Profile). Put shortly: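 Z-LYTE read-out: after 1 h protease development, only non-phosphorylated peptide is cleaved, and the donor/acceptor (coumarin/fluorescein) ratio reports phosphorylation. Beforehand, enzyme and compound (stock concentrations 0.0012–40 μg/mL) were preincubated 2 h at RT, then the kinase reaction ran 1 h at RT with peptide and ATP (8 μM and 400 μM stocks).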

T1 sequence (Q16539 whole entry, canonical isoform): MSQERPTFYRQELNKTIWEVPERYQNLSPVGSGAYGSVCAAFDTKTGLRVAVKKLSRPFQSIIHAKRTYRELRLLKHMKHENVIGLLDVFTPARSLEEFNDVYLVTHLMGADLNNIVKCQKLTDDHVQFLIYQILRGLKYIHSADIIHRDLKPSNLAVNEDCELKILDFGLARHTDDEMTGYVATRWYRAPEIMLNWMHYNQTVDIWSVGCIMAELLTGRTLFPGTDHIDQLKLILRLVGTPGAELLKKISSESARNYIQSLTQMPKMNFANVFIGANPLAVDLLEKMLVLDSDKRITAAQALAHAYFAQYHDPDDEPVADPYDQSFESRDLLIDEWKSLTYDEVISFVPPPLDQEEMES

With `CNc1cncc(Nc2cc(COc3ccc(NC(=O)Nc4cc(C(C)(C)C)nn4-c4ccc(C)cc4)c4ccccc34)ccn2)n1` [Example 120, 1-(3-(tert-butyl)-1-(p-tolyl)-1H-pyrazol-5-yl)-3-(4-((2-((6-(methylamino)pyrazin-2-yl)amino)pyridin-4-yl)methoxy)naphthalen-1-yl) urea], the IC50 in test [1] was determined as 4.8 nM; at p38MAPKγ (MAPK12), 173 nM.
Turning to `Cc1ccc(-n2nc(C(C)(C)C)cc2NC(=O)Nc2ccc(OCc3ccnc(Nc4cnc(C(=O)N5CC(F)C5)cn4)c3)c3ccccc23)cc1` [Example 193, 1-(3-(tert-butyl)-1-(p-tolyl)-1H-pyrazol-5-yl)-3-(4-((2-((5-(3-fluoroazetidine-1-carbonyl)pyrazin-2-yl)amino)pyridin-4-yl)methoxy)naphthalen-1-yl)urea], the IC50 in test [1] is 89 nM; on p38MAPKγ (MAPK12), over 14300 nM.
In the same order, the values of `CCc1cncc(Nc2cc(COc3ccc(NC(=O)Nc4cc(C(C)(C)C)nn4-c4ccc(C)c(F)c4)c4ccccc34)ccn2)n1` [Example 167, 1-(3-(tert-butyl)-1-(3-fluoro-4-methylphenyl)-1H-pyrazol-5-yl)-3-(4-((2-((6-ethylpyrazin-2-yl)amino)pyridin-4-yl)methoxy)naphthalen-1-yl) urea] are 25 nM and 259 nM.
Take `COc1cc(F)cc(-n2nc(C(C)(C)C)cc2NC(=O)Nc2ccc(OCc3ccnc(Nc4cnc(C(=O)N5CCCC5)cn4)c3)c3ccccc23)c1` [Example 250, 1-(3-(tert-butyl)-1-(3-fluoro-5-methoxyphenyl)-1H-pyrazol-5-yl)-3-(4-((2-((5-(pyrrolidine-1-carbonyl)pyrazin-2-yl)amino)pyridin-4-yl)methoxy)naphthalen-1-yl)urea]: the IC50 is 11 nM in test [1] and over 13700 nM on p38MAPKγ (MAPK12).
In the same order, the values of `COCCCc1cnc(Nc2cc(COc3ccc(NC(=O)Nc4cc(C(C)(C)C)nn4-c4ccc(C)cc4)c4ccccc34)ccn2)cn1` [Example 188, 1-(3-(tert-butyl)-1-(p-tolyl)-1H-pyrazol-5-yl)-3-(4-((2-((5-(3-methoxypropyl)pyrazin-2-yl)amino)pyridin-4-yl)methoxy)naphthalen-1-yl)urea] are 32 nM and 442 nM.
With `CC(C)(C)c1cc(NC(=O)Nc2ccc(OCc3ccnc(Nc4cnc(C(=O)N5CCCC5)cn4)c3)c3ccccc23)n(-c2cccc(F)c2)n1` [Example 202, 1-(3-(tert-butyl)-1-(3-fluorophenyl)-1H-pyrazol-5-yl)-3-(4-((2-((5-(pyrrolidine-1-carbonyl)pyrazin-2-yl)amino)pyridin-4-yl)methoxy)naphthalen-1-yl)urea], the IC50 in test [1] amounted to 19 nM; on p38MAPKγ (MAPK12), 1130 nM.
In the same order, the values of `COCc1cnc(Nc2cc(COc3ccc(NC(=O)Nc4cc(C(C)(C)C)nn4-c4cccc(F)c4)c4ccccc34)ccn2)cn1` [Example 203, 1-(3-(tert-butyl)-1-(3-fluorophenyl)-1H-pyrazol-5-yl)-3-(4-((2-((5-(methoxymethyl)pyrazin-2-yl)amino)pyridin-4-yl)methoxy)naphthalen-1-yl) urea] are 17 nM and 250 nM.
`Cc1ccc(-n2nc(C(C)(C)C)cc2NC(=O)Nc2ccc(OCc3ccnc(Nc4cncc(N5CCOCC5)n4)c3)c3ccccc23)cc1` [Example 118, 1-(3-(tert-butyl)-1-(p-tolyl)-1H-pyrazol-5-yl)-3-(4-((2-((6-morpholinopyrazin-2-yl)amino)pyridin-4-yl)methoxy)naphthalen-1-yl) urea]: the IC50 in test [1] amounted to 5.5 nM; on p38MAPKγ (MAPK12), 115 nM.
Take `COCc1ccc(-n2nc(C(C)(C)C)cc2NC(=O)Nc2ccc(OCc3ccnc(Nc4cnc(C(=O)N5CCCC5)cn4)c3)c3ccccc23)cc1` [Example 217, 1-(3-(tert-butyl)-1-(4-(methoxymethyl)phenyl)-1H-pyrazol-5-yl)-3-(4-((2-((5-(pyrrolidine-1-carbonyl)pyrazin-2-yl)amino)pyridin-4-yl)methoxy)naphthalen-1-yl)urea]: the IC50 in test [1] was determined as 17 nM; at p38MAPKγ (MAPK12), 424 nM.
`COc1cncc(Nc2cc(COc3ccc(NC(=O)Nc4cc(C(C)(C)C)nn4-c4csc(C)c4)c4ccccc34)ccn2)n1` [Example 113, 1-(3-(tert-butyl)-1-(5-methylthiophen-3-yl)-1H-pyrazol-5-yl)-3-(4-((2-((6-methoxypyrazin-2-yl)amino)pyridin-4-yl)methoxy)naphthalen-1-yl) urea]: the results for the IC50 (in test [1]; on p38MAPKγ (MAPK12)) were 37 nM and 3200 nM, respectively.
In the same order, the values of `CN(C)Cc1ccc(-n2nc(C(C)(C)C)cc2NC(=O)Nc2ccc(OCc3ccnc(Nc4cnccn4)c3)c3ccccc23)cc1` [Example 267, 1-(3-(tert-butyl)-1-(4-((dimethylamino)methyl)phenyl)-1H-pyrazol-5-yl)-3-(4-((2-(pyrazin-2-ylamino)pyridin-4-yl)methoxy)naphthalen-1-yl)urea] are under 0.47 nM and 2040 nM.
Take `CCc1ncc(Nc2cc(COc3ccc(NC(=O)Nc4cc(C(C)(C)C)nn4-c4ccc(C)cc4)c4ccccc34)ccn2)nc1C` [Example 129, 1-(3-(tert-butyl)-1-(p-tolyl)-1H-pyrazol-5-yl)-3-(4-((2-((5-ethyl-6-methylpyrazin-2-yl)amino)pyridin-4-yl)methoxy)naphthalen-1-yl) urea]: the IC50 in test [1] was 40 nM; on p38MAPKγ (MAPK12), over 15600 nM.
Regarding `Cc1ccc(-n2nc(C(C)(C)C)cc2NC(=O)Nc2ccc(OCc3ccnc(Nc4cnc(C(=O)N5CC[C@H](F)C5)cn4)c3)c3ccccc23)cc1` [Example 242, (S)-1-(3-(tert-butyl)-1-(p-tolyl)-1H-pyrazol-5-yl)-3-(4-((2-((5-(3-fluoropyrrolidine-1-carbonyl)pyrazin-2-yl)amino)pyridin-4-yl)methoxy)naphthalen-1-yl)urea], the values for the IC50 (in test [1]; at p38MAPKγ (MAPK12)) were 19 nM and over 14000 nM, respectively.
Turning to `Cc1ccc(-n2nc(C(C)(C)C)cc2NC(=O)Nc2ccc(OCc3ccnc(Nc4cnccn4)c3)c3ccccc23)cc1F` [Example 59], the IC50 stood at 18 nM in test [1] and 105 nM on p38MAPKγ (MAPK12).
Turning to `Cc1ccc(-n2nc(C(C)(C)C)cc2NC(=O)Nc2ccc(OCc3ccnc(Nc4cnc(CO)cn4)c3)c3ccccc23)cc1C` [Example 147, 1-(3-(tert-butyl)-1-(3,4-dimethylphenyl)-1H-pyrazol-5-yl)-3-(4-((2-((5-(hydroxymethyl)pyrazin-2-yl)amino)pyridin-4-yl)methoxy)naphthalen-1-yl) urea], the IC50 in test [1] was 4.1 nM; on p38MAPKγ (MAPK12) it was 119 nM.
For the molecule `COc1ccc(-n2nc(C(C)(C)C)cc2NC(=O)Nc2ccc(OCc3ccnc(Nc4cnc(CO)cn4)c3)c3ccccc23)cn1` [Example 177, 1-(3-(tert-butyl)-1-(6-methoxypyridin-3-yl)-1H-pyrazol-5-yl)-3-(4-((2-((5-(hydroxymethyl)pyrazin-2-yl)amino)pyridin-4-yl)methoxy)naphthalen-1-yl) urea], the results for the IC50 (in test [1]; on p38MAPKγ (MAPK12)) were 5.2 nM and 81 nM, respectively.
With `Cc1ccc(-n2nc(C(C)(C)C)cc2NC(=O)Nc2ccc(OCc3ccnc(Nc4cnc5c(n4)CCCC5)c3)c3ccccc23)cc1` [Example 138, 1-(3-(tert-butyl)-1-(p-tolyl)-1H-pyrazol-5-yl)-3-(4-((2-((5,6,7,8-tetrahydro-quinoxalin-2-yl)amino)pyridin-4-yl)methoxy)naphthalen-1-yl)urea], the IC50 in test [1] was 29 nM; on p38MAPKγ (MAPK12), over 15300 nM.
In the same order, the values of `COCC(=O)Nc1cncc(Nc2cc(COc3ccc(NC(=O)Nc4cc(C(C)(C)C)nn4-c4ccc(C)cc4)c4ccccc34)ccn2)n1` [Example 107, N-(6-((4-(((4-(3-(3-(tert-butyl)-1-(p-tolyl)-1H-pyrazol-5-yl)ureido)naphthalen-1-yl)oxy)methyl)pyridin-2-yl)amino)pyrazin-2-yl)-2-methoxyacetamide] are 27 nM and 5730 nM.
In the same order, the values of `Cc1ccc(-n2nc(C(C)(C)C)cc2NC(=O)Nc2ccc(OCc3ccnc(Nc4cnc(C(=O)N5CCC(F)(F)CC5)cn4)c3)c3ccccc23)cc1` [Example 246, 1-(3-(tert-butyl)-1-(p-tolyl)-1H-pyrazol-5-yl)-3-(4-((2-((5-(4,4-difluoropiperidine-1-carbonyl)pyrazin-2-yl)amino)pyridin-4-yl)methoxy)naphthalen-1-yl)urea] are 58 nM and 3730 nM.
As to `Cc1ccc(-n2nc(C(C)(C)C)cc2NC(=O)Nc2ccc(OCc3ccnc(Nc4cnc(C(=O)N5CCC[C@H](O)C5)cn4)c3)c3ccccc23)cc1` [Example 232, (S)-1-(3-(tert-butyl)-1-(p-tolyl)-1H-pyrazol-5-yl)-3-(4-((2-((5-(3-hydroxypiperidine-1-carbonyl)pyrazin-2-yl)amino)pyridin-4-yl)methoxy)naphthalen-1-yl)urea], the IC50 stood at 18 nM in test [1] and 117 nM on p38MAPKγ (MAPK12).
